The text below walks through data of paper PMC2361176, “Inhibitory effects of retinoic acid metabolism blocking agents (RAMBAs) on the growth of human prostate cancer cells and LNCaP prostate tumour xenografts in SCID mice” (British Journal of Cancer, 2006).

Entries after “also recorded” stand apart in the source; their conditions may differ.

One series deals with LNCaP tumour xenographs. The series can be described thus: In vivo antitumour study, LNCaP human prostate carcinoma xenograft. More on the design: species or system male SCID mice. The settings on record: 0.033 mmol kg−1 once daily; for reduction in tumour growth compared to control: 6 weeks, P<0.05. The procedure: (§1) All animal studies were performed according to the guidelines and approval of the Animal Care Committee of the University of Maryland School of Medicine, and were consistent with United Kingdom Coordinating Committee on Cancer Research guidelines for the welfare of animals in experimental neoplasia. The procedure was modified from [Grigoryev et al (1999)]. Briefly, LNCaP cells were trypsinised, counted, and suspended in Matrigel (2 × 10^7 cells ml^−1) (Fisher Scientific International, Inc., Hampton, NH, USA). Male SCID mice of 4–6 weeks of age were obtained from the National Cancer Institute (Frederick, MD, USA). Each mouse was inoculated s.c. with 0.1 ml of the cell suspension at two sites in the flank. The size of the tumours was determined by measuring the tumour volumes using calipers. Tumour volumes were calculated using the formula V=4/3 × π × r1^2 × r2(r1<r2). The tumours were allowed to develop to approximately 100 mm^3 before treatment. […] Tumour volumes were measured twice weekly and weights of animals were taken weekly after the initiation of treatment. The mice were subjected to 6 weeks of treatment. The mice were then killed and the tumours were excised, weighed, and stored at −80°C until analysis. Additionally, the plasma was collected with 50 IU of heparin and stored at −80°C until analysis.

Another series has as its system cytokeratin 8/18. In words: Differentiation assay (Western-blot analysis of cytokeratins 8/18). To be noted: LNCaP cells, 6 days; for cytokeratin 8/18 expression, fold over control, combination with ATRA: 1 μM RAMBA and 1 μM ATRA; for cytokeratin 8/18 expression, fold over control, combination with ATRA / cytokeratin 8/18 expression, fold over control: control 1±0.07; for cytokeratin 8/18 expression, fold over control: 1 μM agent alone; for expression of cytokeratin 8/18 (concentration dependence): various concentrations. In kind it is cell-based, human. The procedure:
LNCaP cells were scraped with 1.5 ml of PBS. The cells were collected by centrifugation, resuspended in ice-cold cell lysis buffer (0.1 M Tris-HCl, 0.5% Triton X-100, and protease inhibitor cocktail (Boehringer, Indianapolis, IN, USA)), and sonicated. The homogenates were incubated on ice for 30 min, subjected to centrifugation at 13 000 × g for 30 min, and the supernatants were separated and stored at −80°C until use. Protein concentrations were determined by the Bradford method using a Bio-Rad kit (Hercules, CA, USA). A measure of 50 μg of cell lysate was subjected to 10% sodium dodecyl sulfate-polyacrylamide gel electrophoresis (SDS–PAGE) using the Mini-PROTEAN3 electrophoresis module assembly (Bio-Rad, Hercules, CA, USA) at 60 V at room temperature. The separated lysates on 10% SDS–PAGE gel were transferred onto Hybond ECL nitrocellulose membrane (Amersham, Arlington Heights, IL, USA) overnight at 20 V at 4°C. Western-blot analysis was performed on the nitrocellulose membrane. The membrane was blocked for 1 h in 10% nonfat dried milk and PBS containing 0.5% Tween 20 (PBS-T) at room temperature. Following washing in PBS-T, the membrane was incubated with mouse monoclonal IgG antibody to cytokeratin 8/18 or β-actin (Santa Cruz Biotechnology, Santa Cruz, CA, USA and Oncogene Research Products, Boston, MA, USA, respectively) dissolved in 10% nonfat dried milk (1 : 5000 or 1 : 10 000), respectively) for l h at room temperature. Following washing, the membrane was incubated with horseradish peroxidase-linked anti-mouse IgG antibody (Amersham, Arlington Heights, IL, USA and Oncogene Research Products, Boston, MA, USA, respectively) dissolved in 10% nonfat dried milk (1 : 1000) for 1 h at room temperature. The membrane was incubated in 4 ml ECL Western Blotting Analysis System (Amersham, Arlington Heights, IL, USA) for 1 min at room temperature. The membrane was resolved on chemiluminescence film (Amersham Hyperfilm High Performance chemiluminescence film, Arlington Heights, IL, USA) and the film was developed using an X-ray developer (M35A X-OMAT Processor, Eastman Kodak Company, Rochester, NY, USA). The intensity of the bands on film was analysed using ImageQuant 5.0 software (Amersham, Arlington Heights, IL, USA). The band intensity corresponds to the level of protein expression of cytokeratin 8/18, which is shown to be expressed in differentiated cells of epithelial origin ([Peehl et al, 1993]; [Hsieh et al, 1995]).

For series [1], the system named is MCF-7 human breast cancer model. More on the design: method as in Patel et al, 2004, 2006. To be noted: ref Patel et al, 2004, 2006; cited from earlier work.
In a further series the target is T1, CYP26 (Homo sapiens, UniProt O43174).
T1 construct: LNCaP cells were incubated with 1 μM ATRA for 24 h to induce the CYP26 enzyme; endogenous in cells; host or cells: LNCaP human prostate cancer cells, pre-treated with 1 μM ATRA
T1 sequence (O43174 1-497): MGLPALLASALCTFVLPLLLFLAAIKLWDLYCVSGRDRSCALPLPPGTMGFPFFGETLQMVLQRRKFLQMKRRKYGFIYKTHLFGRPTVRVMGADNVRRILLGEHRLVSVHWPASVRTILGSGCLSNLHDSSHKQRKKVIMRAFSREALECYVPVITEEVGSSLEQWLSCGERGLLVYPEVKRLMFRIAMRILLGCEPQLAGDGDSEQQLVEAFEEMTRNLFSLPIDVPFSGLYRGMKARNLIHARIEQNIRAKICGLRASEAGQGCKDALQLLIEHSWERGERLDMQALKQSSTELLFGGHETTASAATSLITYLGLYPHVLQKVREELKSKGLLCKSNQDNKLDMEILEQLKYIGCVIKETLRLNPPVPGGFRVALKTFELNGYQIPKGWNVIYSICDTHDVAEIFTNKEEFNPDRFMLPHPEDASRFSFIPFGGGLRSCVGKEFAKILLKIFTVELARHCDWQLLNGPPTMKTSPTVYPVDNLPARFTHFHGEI
In words: Cellular microsomal CYP26 assay (ATRA metabolism of microsomes prepared from T47D cells). It counts as biochemical.

The test system of another series is T47D cells. Further details: method as in Patel et al, 2004. To be noted: cellular assay; ref Patel et al, 2004; read-out: IC50, inhibition of ATRA metabolism in T47D cells; cited from earlier work.
Series [2] can be described thus: Tolerability and body weight in the LNCaP xenograft study. In kind it is in vivo. To be noted: 0.033 mmol kg−1 once daily. On the procedure:
as §1

The next series concerns Bad. In words: Western-blot analysis of Bad in LNCaP cells. It counts as cell-based, human. The settings on record: 5 and 10 μM, P<0.05. On the procedure: The Western-blot protocol described for cytokeratins 8/18 was followed with some exceptions. Cell lysates (50 μg) were separated on a 15% SDS–PAGE gel. All washing was performed using TBS containing 1% Tween 20 (TBS-T). Blocking was performed using 5% milk in TBS-T. Incubations were performed using rabbit monoclonal IgG antibody to Bad and Bcl-2 (1 : 1000), as well as horseradish peroxidase-linked anti-rabbit IgG antibodies (1 : 2000) (Cell Signaling Technology, Beverly, MA, USA).

Turning to `CC1=C(/C=C/C(C)=C/C=C/C(C)=C/C(=O)O)C(C)(C)CCC1n1ccnc1` (centres unmarked) [VN/14-1], the “tumour growth compared to vehicle control (in words)” value with LNCaP tumour xenographs was “ineffective; also recorded: not significantly different”. For the same molecule, in the series on cytokeratin 8/18, the “cytokeratin 8/18 expression, fold over control, combination with ATRA” value (from here on “cytokeratin 8/18 expression, fold … with ATRA”) was 1.59 fold and the “cytokeratin 8/18 expression, fold over control” value was 1.18 fold. In addition, the “expression of cytokeratin 8/18 (concentration dependence)” value (“expression … (concentration dependence)” for short) in the series on cytokeratin 8/18 (data not shown) is given as “concentration-dependent increase”. In series [1], the antitumour efficacy result is listed as “excellent antitumour efficacy”.
In the case of `CC1=C(/C=C/C(C)=C/C=C/C(C)=C/C(=O)Nc2ccc(O)cc2)C(C)(C)CCC1n1ccnc1` (centres unmarked) [VN/66-1], in the series on LNCaP tumour xenographs, the “tumour growth compared to vehicle control (in words)” value is “statistically significantly LNCaP tumour growth inhibition” and the “reduction in tumour growth compared to control” value (from here on “reduction in tumour growth”) was found to be 44%. Also, in the series with cytokeratin 8/18, the “cytokeratin 8/18 expression, fold … with ATRA” value came out at 1.48 fold and the “cytokeratin 8/18 expression, fold over control” value was found to be 1.28 fold. Moreover, in the series with cytokeratin 8/18 (data not shown), the “expression … (concentration dependence)” value is reported as “concentration-dependent increase”.
A word on the IC50: it is the concentration that inhibits the measured activity by half. `CC1=C(/C=C/C(C)=C/C=C/C(C)=C/C(=O)n2ccnc2)C(C)(C)CCC1n1ccnc1` (centres unmarked) [VN/50-1]: the “fold higher potency in microsomes compared to the cellular IC50 value” at CYP26 (microsomal vs cellular IC50) is on record as about 13 fold. Also, the IC50 was 7 ± 1.2 nM at CYP26 (microsomes, read-out: IC50, inhibition of ATRA metabolism of microsomes prepared from T47D cells previously exposed to ATRA) and 10 nM with T47D cells. The “cytokeratin 8/18 expression, fold … with ATRA” value with cytokeratin 8/18 came to 1.51 fold. Moreover, in the series with cytokeratin 8/18, the “cytokeratin 8/18 expression, fold over control” value is listed as 1.23 fold. In the series with cytokeratin 8/18 (data not shown), the “expression … (concentration dependence)” value is “concentration-dependent increase”. Moreover, the “toxicity to the mice” value in series [2] is reported as “very toxic; also recorded: toxic”.
`CC1=C(/C=C/C(C)=C/C=C/C(C)=C\C(=O)Nc2ccc(O)cc2)C(C)(C)CCC1n1ccnc1` (centres unmarked) [VN/69-1]: in the series on LNCaP tumour xenographs, the “tumour growth compared to vehicle control (in words)” value is given as “statistically significantly LNCaP tumour growth inhibition” and the “reduction in tumour growth” value stood at 47%. In addition, in the series on cytokeratin 8/18, the “cytokeratin 8/18 expression, fold … with ATRA” value is recorded as 1.32 fold and the “cytokeratin 8/18 expression, fold over control” value stood at 1.19 fold. The “expression … (concentration dependence)” value with cytokeratin 8/18 (data not shown) is on record as “concentration-dependent increase”.
As for `CC1=C(/C=C/C(C)=C/C=C/C(C)=C/C(=O)O)C(C)(C)CCC1` [ATRA, all-trans-retinoic acid, reference compound], in the series on LNCaP tumour xenographs, the “tumour growth compared to vehicle control (in words)” value was “statistically significantly LNCaP tumour growth inhibition” and the “reduction in tumour growth” value was determined as 75%. Also, the “Bad expression compared with control” value in the series with Bad is “significant increase”. Moreover, in the series with cytokeratin 8/18, the “cytokeratin 8/18 expression, fold over control” value is recorded as 1.38 fold. In the series on cytokeratin 8/18 (5 and 10 μM, P<0.05, data not shown), the “cytokeratin 8/18 expression compared to control” value is recorded as “significant increase”. For the same molecule, the “expression … (concentration dependence)” value in the series with cytokeratin 8/18 (data not shown) is recorded as “concentration-dependent increase”. Besides, in series [2] (data not shown), the “reduction of body weights compared to control” value was about 25%.
